From patent publication US7135466B2 (Kirin Beer Kabushiki Kaisha, priority 1999, dated 2006)

Experiments:
c-kit = biological target: T1, c-kit (Homo sapiens, UniProt P10721); assay: Inhibitory activity against c-kit autophosphorylation (MO7e cells, h-SCF); assay type: cell-based; conditions: for IC50: MO7e cells, 50 ng/ml h-SCF, read-out: c-kit IC50; for inhibition at 1 µM: Mo7e, figure within parentheses in −( ) or >1000( ), at 1000 nM
T1 construct: MO7e (human megakaryocytic leukemia cell line) which had been arrested for 20 hr; endogenous in cells; host or cells: MO7e human megakaryocytic leukemia cell line
T1 sequence (P10721 26-976): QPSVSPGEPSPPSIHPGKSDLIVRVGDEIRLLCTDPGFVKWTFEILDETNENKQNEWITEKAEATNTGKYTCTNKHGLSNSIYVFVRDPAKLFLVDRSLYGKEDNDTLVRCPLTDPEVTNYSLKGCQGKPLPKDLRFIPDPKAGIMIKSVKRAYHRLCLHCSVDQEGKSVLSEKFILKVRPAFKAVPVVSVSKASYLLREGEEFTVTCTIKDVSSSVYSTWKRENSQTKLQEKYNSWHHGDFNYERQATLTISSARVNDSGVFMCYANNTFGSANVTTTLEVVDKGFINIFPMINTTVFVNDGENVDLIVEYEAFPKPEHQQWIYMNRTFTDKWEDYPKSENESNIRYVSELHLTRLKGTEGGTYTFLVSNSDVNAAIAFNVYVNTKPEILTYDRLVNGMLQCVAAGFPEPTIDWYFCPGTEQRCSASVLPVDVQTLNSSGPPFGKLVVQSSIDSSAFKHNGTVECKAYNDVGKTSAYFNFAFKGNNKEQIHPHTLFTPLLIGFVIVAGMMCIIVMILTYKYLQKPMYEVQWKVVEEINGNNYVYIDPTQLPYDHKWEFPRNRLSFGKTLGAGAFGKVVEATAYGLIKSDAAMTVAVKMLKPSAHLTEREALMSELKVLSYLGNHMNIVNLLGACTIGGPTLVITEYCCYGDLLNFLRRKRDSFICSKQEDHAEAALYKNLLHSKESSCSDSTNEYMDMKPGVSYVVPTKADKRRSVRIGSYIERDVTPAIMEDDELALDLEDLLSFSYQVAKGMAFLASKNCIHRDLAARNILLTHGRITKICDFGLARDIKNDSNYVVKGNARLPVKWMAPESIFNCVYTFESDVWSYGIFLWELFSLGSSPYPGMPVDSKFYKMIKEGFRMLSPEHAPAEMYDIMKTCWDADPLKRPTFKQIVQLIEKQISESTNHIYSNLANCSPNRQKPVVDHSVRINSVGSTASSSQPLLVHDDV
Outline: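 Ligand-induced c-kit tyrosine phosphorylation is measured in MO7e cells that were quiesced 20 hr and preincubated with compound for 1 hr prior to a 5 min pulse of 50 ng/ml human SCF. Phospho-c-kit is detected by anti-phosphotyrosine capture ELISA, A450.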

PDGF-Ra = biological target: T2, PDGF-Ra (Homo sapiens, UniProt P16234); assay: Inhibitory activity against PDGF-Ra phosphorylation by PDGF-AA stimulation using G292; assay type: cell-based; conditions: for IC50: > means inhibition at indicated concentration not more than 50%, < and << not less than 50%, read-out: PDGF (E) IC50; for PDGF (E) inhibition (%) at 100 nM / inhibition at 0.1 µM: figure within parentheses in >100( ), at 100 nM; for inhibition at 0.1 µM: G292, read-out: PDGF (E) inhibition (%) at 100 nM
T2 construct: host or cells: G-292 human osteosarcoma cells
T2 sequence (P16234 24-1089): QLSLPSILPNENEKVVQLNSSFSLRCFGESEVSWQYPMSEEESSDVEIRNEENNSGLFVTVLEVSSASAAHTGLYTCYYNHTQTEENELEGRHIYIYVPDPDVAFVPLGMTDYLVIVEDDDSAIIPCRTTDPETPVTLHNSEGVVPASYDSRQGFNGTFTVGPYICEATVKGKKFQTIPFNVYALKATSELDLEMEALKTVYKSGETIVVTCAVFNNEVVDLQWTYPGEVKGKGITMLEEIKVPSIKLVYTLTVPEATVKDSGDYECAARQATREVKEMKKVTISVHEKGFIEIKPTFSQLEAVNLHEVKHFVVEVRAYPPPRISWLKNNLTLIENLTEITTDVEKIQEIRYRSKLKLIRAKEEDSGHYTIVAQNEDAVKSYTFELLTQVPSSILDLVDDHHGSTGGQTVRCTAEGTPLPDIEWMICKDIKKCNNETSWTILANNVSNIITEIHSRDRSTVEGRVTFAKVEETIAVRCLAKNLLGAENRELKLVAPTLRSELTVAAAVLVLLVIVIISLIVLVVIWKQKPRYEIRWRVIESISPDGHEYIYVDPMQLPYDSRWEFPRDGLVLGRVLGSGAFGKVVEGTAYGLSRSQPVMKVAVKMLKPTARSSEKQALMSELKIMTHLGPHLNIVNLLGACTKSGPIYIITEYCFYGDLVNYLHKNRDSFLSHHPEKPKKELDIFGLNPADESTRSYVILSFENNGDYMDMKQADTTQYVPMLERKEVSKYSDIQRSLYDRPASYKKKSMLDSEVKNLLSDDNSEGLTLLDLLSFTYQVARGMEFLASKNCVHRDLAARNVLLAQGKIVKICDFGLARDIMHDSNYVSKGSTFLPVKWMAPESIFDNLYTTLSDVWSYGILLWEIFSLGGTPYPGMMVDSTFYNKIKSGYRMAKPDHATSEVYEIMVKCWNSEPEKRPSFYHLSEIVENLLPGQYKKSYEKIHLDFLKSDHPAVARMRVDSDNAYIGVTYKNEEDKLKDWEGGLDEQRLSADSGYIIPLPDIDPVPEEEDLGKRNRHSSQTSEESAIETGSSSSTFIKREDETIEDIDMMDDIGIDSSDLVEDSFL
Outline: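 In G-292 osteosarcoma cells kept overnight in 0.1% FBS, compound exposure (1 hr, 37 °C) preceded PDGF-AA stimulation at 50 ng/ml for 5 min; receptor phosphotyrosine was then detected by PY-20 capture ELISA.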

SMILES	IC50 (c-kit) [nM]	IC50 (PDGF-Ra) [nM]	inhibition at 1 µM (c-kit) [%]	inhibition at 0.1 µM (PDGF-Ra) [%]	PDGF (E) inhibition (%) at 100 nM (PDGF-Ra) [%]
COc1cc2nccc(Oc3ccc(NC(=S)NC4CCN(Cc5ccccc5)CC4)c(C)c3C)c2cc1OC [Example 513, N-{4-[(6,7-Dimethoxy-4-quinolyl)oxy]-2,3-dimethylphenyl}-N′-[4-(N-benzyl)piperidinyl]thiourea]	720	> 100			28
COc1cc2nccc(Oc3cc(C)c(NC(=S)NCCN4CCCCC4)cc3C)c2cc1OC [Example 514]		> 100	29	31	
COc1cc2ncnc(Oc3ccc(NC(=S)NN4CCCCC4)cc3)c2cc1OC [Example 524, N-{4-[(6,7-Dimethoxy-4-quinazolinyl)oxy]phenyl}-N′-(1-piperidinyl)thiourea]		> 100	21	21	
CCN(CCNC(=S)Nc1ccc(Oc2ncnc3cc(OC)c(OC)cc23)cc1)c1ccccc1C [Example 528]	343	33			
CCCCN(CCCC)C(C)CNC(=S)Nc1ccc(Oc2ncnc3cc(OC)c(OC)cc23)cc1 (centres unmarked) [Example 532, N-{4-[(6,7-Dimethoxy-4-quinazolinyl)oxy]phenyl}-N′-(2-dibutylaminopropyl)thiourea]	752	> 100		44	
COc1cc2ncnc(Oc3ccc(NC(=S)NCCCN4CCOCC4)cc3)c2cc1OC [Example 533, N-{4-[(6,7-Dimethoxy-4-quinazolinyl)oxy]phenyl}-N′-[3-(1-morpholino)propyl]thiourea]	623	64			
COc1cc2ncnc(Oc3ccc(NC(=S)NCCN(C(C)C)C(C)C)cc3)c2cc1OC [Example 535, N-{4-[(6,7-Dimethoxy-4-quinazolinyl)oxy]phenyl}-N′-(2-diisopropylaminoethyl)thiourea]		32	27		
COc1cc2ncnc(Oc3ccc(NC(=S)NCCCN4CCCC4)cc3)c2cc1OC [Example 537, N-{4-[(6,7-Dimethoxy-4-quinazolinyl)oxy]phenyl}-N′-[3-(1-pyrrolidinyl)propyl]thiourea]		> 100	34	34	
COc1cc2nccc(Oc3cc(C)c(NC(=S)NCCN(C)C)cc3C)c2cc1OC [Example 538, N-{4-[(6,7-Dimethoxy-4-quinolyl)oxy]-2,5-dimethylphenyl}-N′-(2-dimethylaminoethyl)thiourea]	768	> 100		22	
COc1cc2nccc(Oc3cc(C)c(NC(=S)NCCCn4ccnc4)cc3C)c2cc1OC [Example 539]	415	> 100			45
CCN(CCNC(=S)Nc1cc(C)c(Oc2ccnc3cc(OC)c(OC)cc23)cc1C)c1ccccc1C [Example 540, N-{4-[(6,7-Dimethoxy-4-quinolyl)oxy]-2,5-dimethylphenyl}-N′-{2-[N-ethyl-N-(o-tolyl)amino]-ethyl}thiourea]	447	48			
COc1cc2nccc(Oc3ccc(NC(=S)NCCCn4ccnc4)c(C)c3C)c2cc1OC [Example 543]	328	54			
CCN(CC)CCCNC(=S)Nc1ccc(Oc2ccnc3cc(OC)c(OC)cc23)c(C)c1C [Example 546, N-{4-[(6,7-Dimethoxy-4-quinolyl)oxy]-2,3-dimethylphenyl}-N′-(3-diethylaminopropyl)thiourea]		54	44		
COc1cc2nccc(Oc3ccc(NC(=S)NCCCN4CCCCC4C)c(C)c3C)c2cc1OC (centres unmarked) [Example 549, N-{4-[(6,7-Dimethoxy-4-quinolyl)oxy]-2,3-dimethylphenyl}-N′-[3-(2-methylpiperidinyl)propyl]thiourea]	681	62			
COc1cc2nccc(Oc3cc(C)c(NC(=S)NCCCN4CCOCC4)cc3C)c2cc1OC [Example 553, N-{4-[(6,7-Dimethoxy-4-quinolyl)oxy]-2,5-dimethylphenyl}-N′-[3-(1-morpholino)propyl]thiourea]	320	> 100		40	

Further lines, with some results ahead:

IC50 (c-kit) [nM]	IC50 (PDGF-Ra) [nM]	inhibition at 1 µM (c-kit) [%]	inhibition at 0.1 µM (PDGF-Ra) [%]	SMILES	PDGF (E) inhibition (%) at 100 nM (PDGF-Ra) [%]
	> 100	21	32	COc1cc2nccc(Oc3cc(C)c(NC(=S)NCCNC(C)=O)cc3C)c2cc1OC [Example 515, N-{4-[(6,7-Dimethoxy-4-quinolyl)oxy]-2,5-dimethylphenyl}-N′-(2-acetamidoethyl)thiourea]	
	38	33		COc1cc2ncnc(Oc3ccc(NC(=S)NCCN4CCCCC4)cc3)c2cc1OC [Example 517, N-{4-[(6,7-Dimethoxy-4-quinazolinyl)oxy]phenyl}-N′-[2-(1-piperidinyl)ethyl]thiourea]	
	79	41		COc1cc2ncnc(Oc3ccc(NC(=S)NCCCN4CCCC4=O)cc3)c2cc1OC [Example 525, N-{4-[(6,7-Dimethoxy-4-quinazolinyl)oxy]phenyl}-N′-[3-(2-oxotetrahydro-1H-1-pyrrolyl)-propyl]thiourea]	
731	> 100		46	COc1cc2ncnc(Oc3ccc(NC(=S)NCCCn4ccnc4)cc3)c2cc1OC [Example 526, N-{4-[(6,7-Dimethoxy-4-quinazolinyl)oxy]phenyl}-N′-[3-(1-imidazoyl)propyl]thiourea]	
875	65			COc1cc2ncnc(Oc3ccc(NC(=S)NCCN4CCOCC4)cc3)c2cc1OC [Example 527, N-{4-[(6,7-Dimethoxy-4-quinazolinyl)oxy]phenyl}-N′-[2-(1-morpholinyl)ethyl]thiourea]	
	> 100	8	38	COc1cc2ncnc(Oc3ccc(NC(=S)NCCN(C)C)cc3)c2cc1OC [Example 529, N-{4-[(6,7-Dimethoxy-4-quinazolinyl)oxy]phenyl}-N′-(2-dimethylaminoethyl) thiourea]	
	> 100	34	45	COc1cc2ncnc(Oc3ccc(NC(=S)NCCN4CCCC4)cc3)c2cc1OC [Example 530, N-{4-[(6,7-Dimethoxy-4-quinazolinyl)oxy]phenyl}-N′-[2-(1-pyrrolidyl)ethyl]thiourea]	
	51	35		COc1cc2ncnc(Oc3ccc(NC(=S)NCCCN4CCCCC4C)cc3)c2cc1OC (centres unmarked) [Example 534, N-{4-[(6,7-Dimethoxy-4-quinazolinyl)oxy]phenyl}-N′-{3-[1-(2-methylpiperidinyl)]propyl}thiourea]	
794	70			COc1cc2nccc(Oc3cc(C)c(NC(=S)NCCN4CCCC4)cc3C)c2cc1OC [Example 541, N-{4-[(6,7-Dimethoxy-4-quinolyl)oxy]-2,5-dimethylphenyl}-N′-[2-(1-pyrrolidinyl)ethyl]thiourea]	
442	> 100		45	COc1cc2nccc(Oc3ccc(NC(=S)NCCN(C)C)c(C)c3C)c2cc1OC [Example 542, N-{4-[(6,7-Dimethoxy-4-quinolyl)oxy]-2,3-dimethylphenyl}-N′-(2-dimethylaminoethyl)thiourea]	
216	< 10			CCN(CCNC(=S)Nc1ccc(Oc2ccnc3cc(OC)c(OC)cc23)c(C)c1C)c1ccccc1C [Example 544, N-{4-[(6,7-Dimethoxy-4-quinolyl)oxy]-2,3-dimethylphenyl}-N′-{2-[N-ethyl-N-(o-tolyl)amino]-ethyl}thiourea]	
254	70			COc1cc2nccc(Oc3cc(C)c(NC(=S)NCCN4CCOCC4)cc3C)c2cc1OC [Example 545, N-{4-[(6,7-Dimethoxy-4-quinolyl)oxy]-2,5-dimethylphenyl}-N′-[2-(1-morpholino)ethyl]thiourea]	
	> 100	41	33	CCCCN(CCCC)CCCNC(=S)Nc1ccc(Oc2ccnc3cc(OC)c(OC)cc23)c(C)c1C [Example 547, N-{4-[(6,7-Dimethoxy-4-quinolyl)oxy]-2,3-dimethylphenyl}-N′-(3-dibutylaminopropyl)thiourea]	
268	46			COc1cc2nccc(Oc3ccc(NC(=S)NCCCN4CCOCC4)c(C)c3C)c2cc1OC [Example 548, N-{4-[(6,7-Dimethoxy-4-quinolyl)oxy]-2,3-dimethylphenyl}-N′-[3-(1-morpholino)propyl]thiourea]	
536	77			COc1cc2nccc(Oc3ccc(NC(=S)NCCN(C(C)C)C(C)C)c(C)c3C)c2cc1OC [Example 550, N-{4-[(6,7-Dimethoxy-4-quinolyl)oxy]-2,3-dimethylphenyl}-N′-(2-diisopropylaminoethyl)thiourea]	
	> 100	28	10	CCCCN(CCCC)CCCNC(=S)Nc1cc(C)c(Oc2ccnc3cc(OC)c(OC)cc23)cc1C [Example 552, N-{4-[(6,7-Dimethoxy-4-quinolyl)oxy]-2,5-dimethylphenyl}-N′-(3-dibutylaminopropyl)thiourea]	
	> 100	39	29	COc1cc2nccc(Oc3cc(C)c(NC(=S)NCCN(C(C)C)C(C)C)cc3C)c2cc1OC [Example 555, N-{4-[(6,7-Dimethoxy-4-quinolyl)oxy]-2,5-dimethylphenyl}-N′-(2-diisopropylaminoethyl)thiourea]	
